# Measured values published in ChEMBL document CHEMBL5512654, “Discovery of novel Thymol-TPP antibiotics that eradicate MRSA persisters” (Eur J Med Chem, 2024).
# Active and inactive are the calls of the source. The calls are words filed in the database; no cut-off is given here.
# What was measured:
# Escherichia coli [1] = assay: Antibacterial activity against Escherichia coli ATCC 25922 assessed as inhibition of bacterial growth measured after 18 hrs by microplate reader; format: functional; conditions: read-out: MIC100
# Escherichia coli [2] = assay: Antibacterial activity against Escherichia coli 53328 assessed as inhibition of bacterial growth measured after 18 hrs by microplate reader; format: functional; conditions: read-out: MIC100
# Pseudomonas aeruginosa [3] = assay: Antibacterial activity against Pseudomonas aeruginosa ATCC 27853 assessed as inhibition of bacterial growth measured after 18 hrs by microplate reader; format: functional; conditions: read-out: MIC100
# Pseudomonas aeruginosa [4] = assay: Antibacterial activity against Pseudomonas aeruginosa 535 assessed as inhibition of bacterial growth measured after 18 hrs by microplate reader; format: functional; conditions: read-out: MIC100
# Klebsiella pneumoniae [5] = assay: Antibacterial activity against Klebsiella pneumonia ATCC 700603 assessed as inhibition of bacterial growth measured after 18 hrs by microplate reader; format: functional; conditions: read-out: MIC100
# Klebsiella pneumoniae [6] = assay: Antibacterial activity against Klebsiella pneumonia 3026 assessed as inhibition of bacterial growth measured after 18 hrs by microplate reader; format: functional; conditions: read-out: MIC100
# Acinetobacter baumannii [7] = assay: Antibacterial activity against Acinetobacter baumannii ATCC 19606 assessed as inhibition of bacterial growth measured after 18 hrs by microplate reader; format: functional; conditions: read-out: MIC100
# Acinetobacter baumannii [8] = assay: Antibacterial activity against Acinetobacter baumannii ATCC 1318 assessed as inhibition of bacterial growth measured after 18 hrs by microplate reader; format: functional; conditions: read-out: MIC100
# [9] = Cytotoxicity against human L02 cells incubated for 72 hrs by MTT dye reduction assay; format: toxicity, cell-based
# Staphylococcus aureus [10] = assay: Bactericidal activity against methicillin-resistant Staphylococcus aureus USA 3390 assessed as reduction in CFU at 2 times of MIC concentration measured upto 4 hrs by time-kill kinetics assay; format: functional
# Staphylococcus aureus [11] = assay: Bactericidal activity against methicillin-resistant Staphylococcus aureus USA 3390 assessed as reduction in CFU at 2 times of MIC concentration measured after 24 hrs by time-kill kinetics assay; format: functional, organism-based
# Staphylococcus aureus [12] = assay: Bactericidal activity against methicillin-resistant Staphylococcus aureus USA 3390 assessed as reduction in CFU at 4 times of MIC concentration measured upto 1 hrs by time-kill kinetics assay; format: functional
# Staphylococcus aureus [13] = assay: Bactericidal activity against methicillin-resistant Staphylococcus aureus USA 3390 assessed as reduction in CFU at 4 times of MIC concentration measured after 24 hrs by time-kill kinetics assay; format: functional, organism-based
# Staphylococcus aureus [14] = assay: Bactericidal activity against methicillin-resistant Staphylococcus aureus USA 3390 assessed as reduction in CFU at 1 times of MIC concentration measured after 1 hrs by time-kill kinetics assay; format: functional, organism-based
# Staphylococcus aureus [15] = assay: Bactericidal activity against methicillin-resistant Staphylococcus aureus USA 3390 assessed as reduction in CFU at 1 times of MIC concentration measured after 24 hrs by time-kill kinetics assay; format: functional, organism-based
# Staphylococcus aureus [16] = assay: Bactericidal activity against methicillin-resistant Staphylococcus aureus USA 3390 assessed as reduction in CFU at 1 times of MIC concentration measured for short time by time-kill kinetics assay; format: functional, organism-based
# Staphylococcus aureus [17] = assay: Bactericidal activity against methicillin-resistant Staphylococcus aureus USA 3390 assessed as reduction in CFU at 4 to 8 times of MIC concentration measured after 24 hrs by time-kill kinetics assay; format: functional, organism-based
# Staphylococcus aureus [18] = assay: Drug resistance, ratio of MIC for methicillin-resistant Staphylococcus aureus USA 3390 after […] exposure to MIC for methicillin-resistant Staphylococcus aureus USA 3390 after first exposure; format: functional
# Staphylococcus aureus [19] = assay: Induction of cell membrane permeability in methicillin-resistant Staphylococcus aureus USA 3390 assessed as increase absorption in leakage of 260 nm absorbing material at 1 to 8 times of MIC measured at 4 hrs; format: functional, organism-based
# Staphylococcus aureus [20] = assay: Induction of cell membrane permeability in methicillin-resistant Staphylococcus aureus USA 3390 assessed as increase in leakage of 260 nm absorbing material at measured upto 6 hrs; format: functional, organism-based
# Staphylococcus aureus [21] = assay: Induction of cell membrane permeability in methicillin-resistant Staphylococcus aureus USA 3390 assessed as increase in leakage of 260 nm absorbing material at 1 to 8 times of MIC; format: functional, organism-based; conditions: time <= 6.0 hrs, TDE = time-dependent effect
# Cell membrane [22] = assay: Induction of cell membrane damage in methicillin-resistant Staphylococcus aureus USA 3390 assessed as increase in fluorescence intensity at 1 to 8 times of MIC concentration measured at 5 mins by SYTOX green assay; format: cell membranes
# Cell membrane [23] = assay: Induction of cell membrane damage in methicillin-resistant Staphylococcus aureus USA 3390 assessed as increase in fluorescence intensity at 1 to 8 times of MIC concentration measured upto 120 mins by SYTOX green assay relative to control; format: cell membranes
# Cell membrane [24] = assay: Induction of cell membrane depolarization in methicillin-resistant Staphylococcus aureus USA 3390 assessed as increase in fluorescence intensity at 1 to 8 times of MIC concentration measured upto 60 mins by DiSC3-5 dye based fluorescence analysis; format: cell membranes
# Cell membrane [25] = assay: Induction of plasma membrane damage in methicillin-resistant Staphylococcus aureus USA 3390 at logarithmic growth phase at 4 times of MIC measured after 1 hr by Scanning electron micrographic analysis; format: cell membranes
# Cell membrane [26] = assay: Induction of cell membrane damage in methicillin-resistant Staphylococcus aureus USA 3390 assessed as rough/shrunken and wrinkled surface at logarithmic growth phase at 4 times of MIC measured after 1 hr by Scanning electron micrographic analysis; format: cell membranes
# Staphylococcus aureus [27] = assay: Antibacterial activity against methicillin-resistant Staphylococcus aureus USA 3390 assessed as eradication of persistence by measuring rapid killing effect 4 times of MIC concentration relative to control; format: functional
# Staphylococcus aureus [28] = assay: Antibacterial activity against methicillin-resistant Staphylococcus aureus USA 3390 assessed as eradication of persistence by measuring rapid killing effect 8 times of MIC concentration relative to control; format: functional
# Staphylococcus aureus [29] = assay: Antibacterial activity against methicillin-resistant Staphylococcus aureus USA 3390 assessed as eradication of persistence by measuring rapid killing effect 4 times of MIC concentration measured upto 7 hrs; format: functional, organism-based
# Staphylococcus aureus [30] = assay: Antibacterial activity against methicillin-resistant Staphylococcus aureus USA 3390 assessed as eradication of persistence by measuring rapid killing effect 8 times of MIC concentration measured upto 7 hrs; format: functional, organism-based
# Cell membrane [31] = assay: Induction of cell membrane permeability of methicillin-resistant Staphylococcus aureus USA 3390 persisters assessed as increase in fluorescence intensity at 4 to 8 ug/ml measured at 30 mins by SYTOX green assay relative to control; format: cell membranes; conditions: dose 4-8 µg/ml
# Cell membrane [32] = assay: Induction of cell membrane depolarization of methicillin-resistant Staphylococcus aureus USA 3390 persisters assessed as increase in fluorescence intensity at 4 to 8 ug/ml measured at 10 mins by SYTOX green assay relative to control; format: cell membranes; conditions: dose 4-8 µg/ml
# Cell membrane [33] = assay: Induction of cell membrane permeability in methicillin-resistant Staphylococcus aureus USA 3390 persisters assessed as increase in leakage (DNA) of 260 nm absorbing material at 1 to 8 times of MIC measured upto 5 hrs; format: cell membranes
# Staphylococcus aureus [34] = assay: In vivo antibacterial efficacy in bioluminescent Staphylococcus aureus Xen29 infected in mouse topical infection model assessed as decrease in fluorescence intensity at 8 mg/kg, sc treated 16, 24, 36, 48, […] hrs post-infection measured after 84 hrs; format: functional, organism-based
# Staphylococcus aureus [35] = assay: In vivo antibacterial efficacy in bioluminescent Staphylococcus aureus Xen29 infected in mouse topical infection model assessed as wound scabbing at 8 mg/kg, sc treated 16, 24, 36, 48, […] hrs post-infection measured after 84 hrs; format: functional, organism-based
# Staphylococcus aureus [36] = assay: In vivo antibacterial efficacy in bioluminescent Staphylococcus aureus Xen29 infected in mouse topical infection model assessed as reduction in number of colonies at 8 mg/kg, sc treated 16, 24, 36, 48, […] hrs post-infection measured after 84 hrs relative to control; format: functional
# [37] = Toxicity in mouse infected with bioluminescent Staphylococcus aureus Xen29 assessed as change in body weight at 8 mg/kg, sc treated 16, 24, 36, 48, […] and 72 hrs post-infection measured after 84 hrs; format: organism-based; conditions: in vivo
structure (smiles),measurement,setting,value
Cc1cc(OC(=O)CCCCC[P+](c2ccccc2)(c2ccccc2)c2ccccc2)c(C(C)C)cc1-c1ccccc1.[Br-],MIC,Escherichia coli [1],8 µg/mL
same,MIC,Escherichia coli [2],8 µg/mL
same,MIC,Pseudomonas aeruginosa [3],32 µg/mL
same,MIC,Pseudomonas aeruginosa [4],64 µg/mL
same,MIC,Klebsiella pneumoniae [5],8 µg/mL
same,MIC,Klebsiella pneumoniae [6],16 µg/mL
same,MIC,Acinetobacter baumannii [7],8 µg/mL
same,MIC,Acinetobacter baumannii [8],8 µg/mL
same,IC50 at 72 h,[9],34.3 µg/mL
same,Activity,Staphylococcus aureus [10],>=2 log10CFU/ml
same,Activity,Staphylococcus aureus [11],inactive
same,Activity,Staphylococcus aureus [12],>=2 log10CFU/ml
same,Activity,Staphylococcus aureus [13],Active
same,Activity,Staphylococcus aureus [14],Active
same,Activity,Staphylococcus aureus [15],Active
same,Activity,Staphylococcus aureus [16],Active
same,Activity,Staphylococcus aureus [17],Active
same,Ratio,Staphylococcus aureus [18],4
same,Activity,Staphylococcus aureus [19],Active
same,Activity,Staphylococcus aureus [20],Dose-Dependent Effect
same,Activity,Staphylococcus aureus [21],Tde
same,Activity,Cell membrane [22],Active
same,Activity,Cell membrane [23],Active
same,Activity,Cell membrane [24],Active
same,Activity,Cell membrane [25],Active
same,Activity,Cell membrane [26],Active
same,Activity,Staphylococcus aureus [27],99.99%
same,Activity,Staphylococcus aureus [28],99.999%
same,Activity,Staphylococcus aureus [29],Active
same,Activity,Staphylococcus aureus [30],Active
same,Activity,Cell membrane [31],Active
same,Activity,Cell membrane [32],Active
same,Activity,Cell membrane [33],Active
same,Activity,Staphylococcus aureus [34],Active
same,Activity,Staphylococcus aureus [35],Active
same,fold change (FC),Staphylococcus aureus [36],10
same,Activity,[37],Non-Toxic
